What was measured:
RPMI-8226 = test: Cytotoxicity against human RPMI8226 cells after 72 hrs by CCK8 method; type: functional, cell-based
A549 = test: Cytotoxicity against human A549 cells after 48 hrs by MTT assay; type: functional, cell-based
Liver = test: Antioxidant activity in Sprague-Dawley rat liver assessed as lipid peroxidation by thiobarbituric acid assay; type: functional, tissue-based
HL-60 = test: Cytotoxicity against human HL60 cells after 72 hrs by CCK8 method; type: functional, cell-based
Kidney = test: Antioxidant activity in Sprague-Dawley rat kidney assessed as lipid peroxidation by thiobarbituric acid assay; type: functional, tissue-based
[1] = Rattus norvegicus, Sprague-Dawley, Liver
[2] = Rattus norvegicus, Sprague-Dawley, Kidney

Row | SMILES | IC50 (RPMI-8226; rpmi-8226) | IC50 (A549; a549) | IC50 (Liver) | IC50 (HL-60; hl-60) | IC50 (Kidney) | IC50 (RPMI-8226; Homo sapiens, RPMI-8226, 72 h) | IC50 (A549; Homo sapiens, A549, 48 h) | IC50 (Liver; [1]) | IC50 (HL-60; Homo sapiens, HL-60, 72 h) | IC50 (Kidney; [2])
1 | CC[C@H](C)[C@H](NC(=O)OC1CC(C)(C)N([O])C(C)(C)C1)C(=O)Oc1c(OC)cc([C@@H]2c3cc4c(cc3C[C@H]3COC(=O)[C@@H]32)OCO4)cc1OC | 58 nM | 830 nM | 13200 nM | 36 nM | 6890 nM | – | – | – | – | –
2 | COc1cc([C@@H]2c3cc4c(cc3C[C@H]3COC(=O)[C@@H]32)OCO4)cc(OC)c1OC(=O)[C@H](CC(C)C)NC(=O)OC1CC(C)(C)N([O])C(C)(C)C1 | 110 nM | 770 nM | 18000 nM | 85 nM | 12100 nM | – | – | – | – | –
3 | COc1cc([C@@H]2c3cc4c(cc3C[C@H]3COC(=O)[C@@H]32)OCO4)cc(OC)c1O [4'-DEMETHYLDEOXYPODOPHYLLOTOXIN] | – | – | – | – | – | 230 nM | 800 nM | 33800 nM | 110 nM | 23000 nM
4 | COc1cc([C@@H]2c3cc4c(cc3C[C@H]3COC(=O)[C@@H]32)OCO4)cc(OC)c1OC(=O)[C@@H](NC(=O)OC1CC(C)(C)N([O])C(C)(C)C1)C(C)C | 160 nM | 550 nM | 19300 nM | 24 nM | 20300 nM | – | – | – | – | –
5 | COc1cc([C@@H]2c3cc4c(cc3C[C@H]3COC(=O)[C@@H]32)OCO4)cc(OC)c1OC(=O)[C@H](Cc1ccccc1)NC(=O)OC1CC(C)(C)N([O])C(C)(C)C1 | 31 nM | 500 nM | 10400 nM | 18 nM | 15000 nM | – | – | – | – | –
6 | COc1cc([C@@H]2c3cc4c(cc3[C@@H](O[C@@H]3O[C@@H]5CO[C@@H](C)O[C@H]5[C@H](O)[C@H]3O)[C@H]3COC(=O)[C@H]23)OCO4)cc(OC)c1O [ETOPOSIDE] | – | – | – | – | – | 700 nM | 830 nM | 46400 nM | 180 nM | 64600 nM
7 | COc1cc([C@@H]2c3cc4c(cc3C[C@H]3COC(=O)[C@@H]32)OCO4)cc(OC)c1OC(=O)[C@H](Cc1ccc(O)cc1)NC(=O)OC1CC(C)(C)N([O])C(C)(C)C1 | 43 nM | 270 nM | 15200 nM | 32 nM | 16300 nM | – | – | – | – | –
8 | COc1cc([C@@H]2c3cc4c(cc3C[C@H]3COC(=O)[C@@H]32)OCO4)cc(OC)c1OC(=O)CNC(=O)OC1CC(C)(C)N([O])C(C)(C)C1 | 73 nM | 620 nM | 14400 nM | 8.7 nM | 13700 nM | – | – | – | – | –
9 | COc1cc([C@@H]2c3cc4c(cc3C[C@H]3COC(=O)[C@@H]32)OCO4)cc(OC)c1OC(=O)[C@@H]1CCCN1C(=O)OC1CC(C)(C)N([O])C(C)(C)C1 | 130 nM | 600 nM | 9700 nM | 140 nM | 14600 nM | – | – | – | – | –
10 | COc1cc([C@@H]2c3cc4c(cc3C[C@H]3COC(=O)[C@@H]32)OCO4)cc(OC)c1OC(=O)[C@H](C)NC(=O)OC1CC(C)(C)N([O])C(C)(C)C1 | 44 nM | 670 nM | 15300 nM | 12 nM | 15800 nM | – | – | – | – | –

Reference: ChEMBL document CHEMBL1157024, “First synthesis and biological evaluation of novel spin-labeled derivatives of deoxypodophyllotoxin” (Eur J Med Chem, 2010)
